Laboratory results published in publication PMC9340770 (Journal of Medicinal Chemistry, 2022).
Like-named read-outs stand apart in the source and are kept apart here.

Tests used:
human EGFR = target: T1, human EGFR (Homo sapiens, UniProt P00533); format: biochemical
T1 construct: purchased Reaction Biology

[1] = test system: phosphorylated ERK1/2 (pERK) in MKN1 cells; test: cells; format: cell-based; settings: Homo sapiens
in vivo = settings: CD-1, mouse, pH 5; for clearance: iv, 3 mg/kg; for AUC(0-t) / bioavailability: po, 100 mg/kg
[2] = Human liver microsome intrinsic clearance; format: in vitro ADME; settings: human liver microsomes
[3] = test system: pERK in MIA PaCa-2 tumors; test: Tumor pharmacodynamic (pERK) study in MIA PaCa-2 mouse xenograft
[4] = test system: MIA PaCa-2 tumor mouse xenograft; test: Antitumor efficacy study in MIA PaCa-2 mouse xenograft; settings: single agent MRTX849, 10 mg/kg qd, 25 days
[5] = MKN-1, In-Cell Western Assay measuring pERK, read-out: MKN1 Cell IC50
[6] = MKN-1, read-out: MKN1 Cell IC50
[7] = PO CD-1 mice, 100 mg/kg, 0.5% MC (4000 cps)/0.2% Tween80 in water

T1 sequence (P00533 25-1210): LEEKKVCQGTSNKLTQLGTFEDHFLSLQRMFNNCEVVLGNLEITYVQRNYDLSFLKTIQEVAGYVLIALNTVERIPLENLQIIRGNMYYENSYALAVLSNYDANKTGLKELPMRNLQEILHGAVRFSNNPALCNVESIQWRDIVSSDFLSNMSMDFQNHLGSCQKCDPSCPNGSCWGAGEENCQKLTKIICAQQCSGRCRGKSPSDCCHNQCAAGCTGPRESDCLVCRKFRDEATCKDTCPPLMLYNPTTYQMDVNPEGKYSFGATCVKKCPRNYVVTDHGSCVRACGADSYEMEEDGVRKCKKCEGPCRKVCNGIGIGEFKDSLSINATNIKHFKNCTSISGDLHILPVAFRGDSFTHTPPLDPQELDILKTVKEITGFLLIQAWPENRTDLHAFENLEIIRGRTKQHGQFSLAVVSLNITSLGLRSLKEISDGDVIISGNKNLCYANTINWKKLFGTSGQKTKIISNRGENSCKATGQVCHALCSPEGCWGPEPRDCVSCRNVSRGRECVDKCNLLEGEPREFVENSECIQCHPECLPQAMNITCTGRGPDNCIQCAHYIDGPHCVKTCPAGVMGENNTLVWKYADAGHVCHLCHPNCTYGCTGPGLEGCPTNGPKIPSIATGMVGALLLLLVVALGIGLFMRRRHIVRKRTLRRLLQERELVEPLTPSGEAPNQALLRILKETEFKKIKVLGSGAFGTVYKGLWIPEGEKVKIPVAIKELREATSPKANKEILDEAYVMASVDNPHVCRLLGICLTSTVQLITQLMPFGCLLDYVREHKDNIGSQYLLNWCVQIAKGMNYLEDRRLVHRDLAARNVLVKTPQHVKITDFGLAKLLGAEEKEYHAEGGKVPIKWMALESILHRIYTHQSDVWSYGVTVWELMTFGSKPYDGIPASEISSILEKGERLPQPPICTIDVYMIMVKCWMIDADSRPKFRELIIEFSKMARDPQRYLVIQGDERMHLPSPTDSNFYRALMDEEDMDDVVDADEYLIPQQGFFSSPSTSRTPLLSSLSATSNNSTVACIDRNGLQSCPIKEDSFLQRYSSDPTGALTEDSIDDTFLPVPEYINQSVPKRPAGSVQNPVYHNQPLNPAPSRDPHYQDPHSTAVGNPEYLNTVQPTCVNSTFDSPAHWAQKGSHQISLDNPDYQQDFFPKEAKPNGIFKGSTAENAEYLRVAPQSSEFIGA

## COc1cc2cnnc(N[C@H](C)c3ccccc3)c2cc1OC [Compound 6]
Human EGFR; 10 μM ATP
  IC50: > 10000 nM
[1]; [5]
  IC50: > 10000 nM

## COc1cc2cnnc(N[C@H](C)c3cccc4ccccc34)c2cc1OC [Compound 7]
Human EGFR; 10 μM ATP
  IC50: > 10000 nM
[1]; [5]
  IC50: > 10000 nM

## COc1cc2cnnc(N[C@H](C)c3cccc(C(F)(F)F)c3)c2cc1OC [Compound 8]
Human EGFR; 10 μM ATP
  IC50: > 10000 nM
[1]; [6]
  IC50: 958 nM

## COc1cc2cnnc(N[C@H](C)c3ccccc3C)c2cc1OC [Compound 9]
Human EGFR; 10 μM ATP
  IC50: > 10000 nM
[1]; [5]
  IC50: > 10000 nM

## COc1cc2cnnc(N[C@H](C)c3cccc(C(F)(F)F)c3C)c2cc1OC [Compound 10]
Human EGFR; 10 μM ATP
  IC50: > 10000 nM

## CNCc1ccccc1-c1csc([C@@H](C)Nc2nncc3cc(OC)c(OC)cc23)c1 [Compound 11]
Human EGFR
  IC50: > 10000 nM

## Cc1c([C@@H](C)Nc2nnc(C)c3ccc(N4CCNCC4)cc23)cccc1C(F)(F)F [Compound 15]
In vivo
  clearance: 85 mL/min/kg
  AUC(0-t): 1300 ng·h/mL
  bioavailability: 11%

## Cc1c([C@@H](C)Nc2nnc(C)c3ccc(C4CCNCC4)cc23)cccc1C(F)(F)F [Compound 16]
[1]; [6]
  IC50: 183 nM

## Cc1c([C@@H](C)Nc2nnc(C(F)(F)F)c3ccc(N4CCNCC4)cc23)cccc1C(F)(F)F [Compound 18]
[1]; [5]
  IC50: > 10000 nM

## COc1nnc(N[C@H](C)c2cccc(C(F)(F)F)c2C)c2cc(N3CCNCC3)ccc12 [Compound 19]
[1]; [5]
  IC50: > 10000 nM

## Cc1c([C@@H](C)Nc2n[nH]c(=O)c3ccc(N4CCNCC4)cc23)cccc1C(F)(F)F [Compound 21]
[1]; [6]
  IC50: 114 nM

## Cc1c([C@@H](C)Nc2nn(C)c(=O)c3ccc(N4CCNCC4)cc23)cccc1C(F)(F)F [Compound 22]
[1]; [6]
  IC50: 881 nM

## Cc1c([C@@H](C)Nc2nnc(C)c3cnc(N4CCNCC4)cc23)cccc1C(F)(F)F [Compound 23]
[2]
  CLint scaled: 27 mL/min/kg
In vivo
  clearance: 52 mL/min/kg
  AUC(0-t): 9970 ng·h/mL
  bioavailability: 44%
mouse, IV 3 mg/kg
  Eh: 0.58

## Cc1c([C@@H](C)Nc2nnc(C)c3cnc(N4CCOCC4)cc23)cccc1C(F)(F)F [Compound 24]
[3]; 24 at 100 mg/kg bid PO, 21 days, 3 h after last dose
  tumor pERK modulation, single agent: No modulation
[3]; 24 at 100 mg/kg bid in combination with MRTX849 10 mg/kg qd, PO, 21 days, 3 h after last dose
  reduction in tumor pERK, combination: 69%
[2]
  CLint scaled: 114 mL/min/kg
In vivo
  clearance: 17 mL/min/kg
[7]
  mPK PO Dosing %F: ~100%
  mPK PO Dosing AUC0-last: 130318 ng·h/mL
[1]; [5]
  IC50: 26 nM

## Cc1nnc(N[C@H](C)c2cccc(C(F)(F)F)c2F)c2cc(N3CCOCC3)ncc12 [Compound 25]
[2]
  CLint scaled: 214 mL/min/kg

## Cc1nnc(N[C@H](C)c2cccc(C(F)(F)F)n2)c2cc(N3CCOCC3)ncc12 [Compound 26]
[2]
  CLint scaled: 206 mL/min/kg
[1]; [6]
  IC50: 185 nM

## Cc1nnc(N[C@H](C)c2cc(N)cc(C(F)(F)F)n2)c2cc(N3CCOCC3)ncc12 [Compound 27]
[2]
  CLint scaled: 18 mL/min/kg

## Cc1ncccc1[C@@H](C)Nc1nnc(C)c2cnc(N3CCOCC3)cc12 [Compound 28]
[2]
  CLint scaled: 21 mL/min/kg

## Cc1nn(C)cc1[C@@H](C)Nc1nnc(C)c2cnc(N3CCOCC3)cc12 [Compound 29]
[2]
  CLint scaled: 15 mL/min/kg
[1]; [6]
  IC50: 3280 nM

## Cc1nnc(N[C@H](C)c2cn(C)nc2C(F)(F)F)c2cc(N3CCOCC3)ncc12 [Compound 30]
[2]
  CLint scaled: 37 mL/min/kg
[1]; [6]
  IC50: 1150 nM

## Cc1c(Br)cccc1[C@@H](C)Nc1nnc(C)c2cnc(N3CCOCC3)cc12 [Compound 31]
[2]
  CLint scaled: 396 mL/min/kg
[1]; [6]
  IC50: 114 nM

## Cc1c([C@@H](C)Nc2nnc(C)c3cnc(N4CCOCC4)cc23)cccc1S(C)(=O)=O [Compound 33]
[2]
  CLint scaled: 7.9 mL/min/kg

## Cc1nnc(N[C@H](C)c2cccc(C#N)c2)c2cc(N3CCOCC3)ncc12 [Compound 34]
[2]
  CLint scaled: 505 mL/min/kg

## Cc1c(C#N)cccc1[C@@H](C)Nc1nnc(C)c2cc(F)c(N3CCOCC3)cc12 [Compound 35]
[1]; [5]
  IC50: 120 nM

## Cc1c(C#N)cccc1[C@@H](C)Nc1nnc(C)c2cc(Cl)c(N3CCOCC3)cc12 [Compound 36]
[1]; [6]
  IC50: 286 nM

## Cc1c(C#N)cccc1[C@@H](C)Nc1nnc(C)c2cc(C#N)c(N3CCOCC3)cc12 [Compound 37]
[1]; [5]
  IC50: 490 nM

## C=C(F)C(=O)N1CCN(c2nc(OC[C@@H]3CCCN3C)nc3c2CCN(c2cccc4cccc(Cl)c24)C3)C[C@@H]1CC#N [MRTX849, adagrasib, reference compound]
[3]; MRTX849 at 10 mg/kg qd PO, 21 days
  tumor pERK modulation, single agent: No modulation
[3]; MRTX849 dosed in combination with MRTX0902
  plasma concentration of MRTX849: remained unchanged
[4]
  tumor growth inhibition (TGI): 94%
